# According to publication PMC12216525, “Characterization of glutamine synthetase involved in the fecundity of Rhopalosiphum padi” (Scientific Reports, 2025):
# Tested on: RpGS1
# Settings: read-out: RpGS1; 0.5-15 mM sodium glutamate; ATP, hydroxylamine, Mg2+ in solution B pH 7.4; 37 C; called purified in the discussion, methods describe protein released by ultrasonication
smiles,measurement,value
N[C@@H](CCC(=O)O)C(=O)O [sodium glutamate],Km,580 µM
